According to patent US6384077B1, “Highly purified EPA for treatment of schizophrenia and related disorders” (Laxdale Limited, priority 1999, dated 2002):

How the values were obtained:
[1] = molecular target: human brain enzyme FACL-4 (Homo sapiens, UniProt O60488); conditions: cited from earlier work
[2] = system: tardive dyskinesia; assay: patients with neuroleptic-induced tardive dyskinesia treated with EPA; assay type: in vivo, human; conditions: several patients
Text: The typical neuroleptics in some patients produce a distressing condition called tardive dyskinesia. […] The patient experiences uncontrollable twitching and other movements. These can affect any part of the body but commonly affect the face where they are particularly distressing. Facial twitches and movements, including protrusions and uncontrollable movements of the tongue occur. […] Movements have become substantially less and in some patients have disappeared completely.

[3] = system: phospholipase A2; conditions: cited from earlier work
[4] = system: patients who had schizophrenia; assay: randomised, placebo-controlled study of ethyl-EPA in clozapine-treated patients with schizophrenia (PANSS, MADRS); assay type: in vivo, human; conditions: 12 weeks, patients on clozapine
Text: Although the case reports of the effects of ethyl-EPA are convincing and in some cases dramatic, unequivocal proof of its efficacy must come from randomised, placebo-controlled trials. We therefore set up a randomised, placebo-controlled study of EPA in 34 patients who had schizophrenia according to the criteria set out in the American Psychiatric Association's Diagnostic and Statistical Manual of Mental Disorders (4th edition, DSM-IV). All of these patients were being treated with clozapine drugs but all remained seriously ill, with schizophrenic symptoms. Like many schizophrenics, some of the patients were also depressed. All were assessed at baseline and after 12 weeks using the Positive and Negative Symptom Scale for Schizophrenia (PANSS) and the Montgomery-Asberg Depression Rating Scale (MADRS). After giving informed consent, all the patients were randomised on a double blind basis to one of three groups: placebo, or 1 g or 2 g of ethyl-EPA per day in the form of 0.5 g capsules. Placebo and EPA capsules were indistinguishable from one another in appearance. All the patients improved to some degree so all the changes are percentage improvements

[5] = system: schizophrenia; assay: case history: schizophrenia, ethyl-EPA added to haloperidol; assay type: in vivo, human; conditions: person
Text: A person had become ill with schizophrenia. They had florid hallucinations and paranoia, but also withdrew themself from most of their friendships and lived alone. […] They lived alone, ceased to communicate with most of their friends, and went around to town alone and muttering to […]. Their psychiatrist heard about ethyl-EPA and decided to try it in addition to the standard drug. After eight weeks on treatment with 4 g/day their outlook was transformed. […] They were even persuaded to go on holiday with their family where they enjoyed themself and made new friends. The EPA therefore reversed the extreme withdrawal which appeared to have been exaggerated by haloperidol.

[6] = system: attention deficit hyperactivity disorder (ADHD); assay: case report: child with ADHD; assay type: in vivo, human; conditions: before ethyl-EPA
Text: Attention deficit hyperactivity disorder (ADHD): ADHD and closely related conditions like attention deficit disorder and conduct disorders are commonly found in children. Occasionally they may be successfully treated by behaviour modification and other psychological techniques or by careful attention to diet. However, in most cases, paradoxical treatment with one of the stimulant drugs related in their action to amphetamine is required. Methylphenidate and dextroamphetamine are the commonest used. A child with serious ADHD since infancy was driving their parents to distraction. […] The parents were concerned about the long term consequences of stimulant drugs. The child was therefore tried on two capsules of pure ethyl-EPA per day. […] The child became less tense and irritable, less hyperactive, more open to reasoned discussion and enormously less disruptive both at home and school. Even when their methylphenidate was stopped, their behaviour remained improved.

[7] = system: schizophrenia, drug-induced obesity; assay type: in vivo, human; conditions: in vivo
Text: Obesity is another common side effect of antipsychotropic drugs. In this respect some of the newer drugs like olanzapine frequently seem to be even worse offenders than the typical neuroleptics. […] They preferred the olanzapine but it still left their withdrawn and unable to communicate normally with friends or family. To their distress it caused them to put on over 10 kg in weight. Their doctor decided to test ethyl-EPA in addition to olanzapine.

[8] = system: schizophrenia; assay: case history: schizophrenia, E-EPA added to clozapine; assay type: in vivo, human; conditions: patient not responding to typical neuroleptics; clozapine up to 900 mg/day
Text: This mechanism is thought to be responsible for their rapid effects on the so-called “positive” symptoms of schizophrenia (such as hallucinations, delusions and thought disorder). […] The D2 blocking action is also responsible for many of the adverse effects of these drugs, which include extrapyramidal movement disorders, excess prolactin secretion, and tardive dyskinesias. Examples of widely used drugs in this class include chlorpromazine, thioridazine, haloperidol, pimozide, flupenthixol and sulpiride.
These may include blockade of one or more of the other dopamine receptors such as D1, D3 or D4, and also usually including blockade of one or more classes of serotonin receptors. […] They may also have actions at other receptors, including histamine, glutamate and acetyl choline receptors.
The patient was treated with clozapine, eventually reaching a maximum dose of 900 mg/day.
E-EPA in a dose of 2 g/day was then administered in addition to clozapine.

Sequence of human brain enzyme FACL-4 (O60488 whole entry): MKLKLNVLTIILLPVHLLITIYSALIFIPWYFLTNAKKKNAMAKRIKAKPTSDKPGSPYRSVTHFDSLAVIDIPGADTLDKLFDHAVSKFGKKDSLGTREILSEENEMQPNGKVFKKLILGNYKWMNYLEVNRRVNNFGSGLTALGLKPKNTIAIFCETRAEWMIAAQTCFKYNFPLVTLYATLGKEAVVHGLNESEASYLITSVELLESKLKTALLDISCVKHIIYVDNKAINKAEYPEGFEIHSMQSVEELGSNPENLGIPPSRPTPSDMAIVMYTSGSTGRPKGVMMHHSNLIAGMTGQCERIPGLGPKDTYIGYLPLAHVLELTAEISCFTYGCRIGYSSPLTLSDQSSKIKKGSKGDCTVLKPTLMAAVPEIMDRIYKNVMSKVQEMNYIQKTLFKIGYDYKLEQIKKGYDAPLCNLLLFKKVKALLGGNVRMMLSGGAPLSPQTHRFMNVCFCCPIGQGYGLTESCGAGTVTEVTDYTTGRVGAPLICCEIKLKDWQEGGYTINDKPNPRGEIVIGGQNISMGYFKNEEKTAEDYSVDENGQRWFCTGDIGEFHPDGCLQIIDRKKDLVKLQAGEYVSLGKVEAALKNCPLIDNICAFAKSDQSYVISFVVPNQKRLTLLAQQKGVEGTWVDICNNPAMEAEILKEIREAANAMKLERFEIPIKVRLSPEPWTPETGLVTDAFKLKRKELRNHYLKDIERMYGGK

## CCCCC/C=C\C/C=C\C/C=C\C/C=C\CCCC(=O)O [AA, arachidonic acid, reference compound]
[1]; relative to DHA
  FACL-4 activity for AA relative to DHA: more than twice as great as for DHA

## CC/C=C\C/C=C\C/C=C\C/C=C\C/C=C\CCCC(=O)O [EPA, all cis (or all z) 5,8, 11, 14, 17-eicosapentaenoic acid]
[2]
  tardive dyskinesia: substantial relief from tardive dyskinesia
[1]
  affinity for FACL-4: unusually high affinity
[1]; relative to AA
  FACL-4 activity for EPA, greater than for AA: 50%
[3]
  inhibition of phospholipase A2: known to inhibit phospholipase A2
[4]; 1 g ethyl-EPA per day
  MADRS, percentage improvement from baseline: 35.7%
  Total PANSS, percentage improvement from baseline: 18.8%
  negative PANSS, percentage improvement from baseline: 22.7%
  positive PANSS, percentage improvement from baseline: 20.0%
[4]; 2 g ethyl-EPA per day
  MADRS, percentage improvement from baseline: 35.7%
  Total PANSS, percentage improvement from baseline: 17.1%
  negative PANSS, percentage improvement from baseline: 22.7%
  positive PANSS, percentage improvement from baseline: 25.0%

## O=C(CCCN1CCC(O)(c2ccc(Cl)cc2)CC1)c1ccc(F)cc1 [haloperidol, reference compound]
[5]
  effect on hallucinations, drug alone: stopped most of the hallucinations

## COC(=O)C(c1ccccc1)C1CCCCN1 (stereo not drawn) [methylphenidate, reference compound]
[6]
  control of ADHD: only partially controlled

## Cc1cc2c(s1)Nc1ccccc1N=C2N1CCN(C)CC1 [olanzapine, reference compound]
[7]
  weight put on: over 10 kg

## OCCOCCN1CCN(C2=Nc3ccccc3Sc3ccccc32)CC1 [quetiapine, reference compound]
[8]
  clinical response to neuroleptic alone: no substantial benefit

## Cc1nc2n(c(=O)c1CCN1CCC(c3noc4cc(F)ccc34)CC1)CCCC2 [risperidone, reference compound]
[8]
  clinical response to neuroleptic alone: no substantial benefit
